# From the supplement of paper PMC10307832
# How the values were obtained:
# Assay in all cases: relative viability (nuclei count vs DMSO), 5 days (fraction); higher = more cells survive
# HARA = system: HARA
# Summary of the method: (§1)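 After 5 days of treatment, lung cancer cells in 1536-well plates were fixed and stained in a single step (final 0.05% Triton X-100, 1% formaldehyde, 1 ug/ml Hoechst) and their nuclei counted on 4× images. Treatment had been applied by pin tool the day after seeding as one drug alone or as a fixed anchor-drug dose with five library-drug doses (not always all listed) in √10 steps. Relative viability is the nuclei count of treated wells divided by that of vehicle wells, and values are medians of duplicate plates.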
# 201T = system: 201T
# Summary of the method: as §1
# LXF-289 = system: LXF-289
# Summary of the method: as §1
# NCI-H2170 = system: NCI-H2170
# Summary of the method: as §1
# SK-MES-1 = system: SK-MES-1
# Summary of the method: as §1
# EMC-BAC-2 = system: EMC-BAC-2
# Summary of the method: as §1
# H3255 = system: H3255
# Summary of the method: as §1
# RERF-LC-KJ = system: RERF-LC-KJ
# Summary of the method: as §1
# NCI-H2126 = system: NCI-H2126
# Summary of the method: as §1
# LOU-NH91 = system: LOU-NH91
# Summary of the method: as §1
# LU99A = system: LU99A
# Summary of the method: as §1
# NCI-H2087 = system: NCI-H2087
# Summary of the method: as §1
# NCI-H1563 = system: NCI-H1563
# Summary of the method: as §1
# HOP-62 = system: HOP-62
# Summary of the method: as §1
# NCI-H1993 = system: NCI-H1993
# Summary of the method: as §1
# UMC-11 = system: UMC-11
# Summary of the method: as §1
# BEN = system: BEN
# Summary of the method: as §1
# NCI-H650 = system: NCI-H650
# Summary of the method: as §1
# COR-L 105 = system: COR-L 105
# Summary of the method: as §1
# LC-2-ad = system: LC-2-ad
# Summary of the method: as §1
# HCC-78 = system: HCC-78
# Summary of the method: as §1
smiles,measurement,setting,value
CCNC(=O)c1noc(-c2cc(C(C)C)c(O)cc2O)c1-c1ccc(CN2CCOCC2)cc1 [Luminespib] + C[C@@H](Oc1cc(-c2cnn(C3CCNCC3)c2)cnc1N)c1c(Cl)ccc(F)c1Cl [Crizotinib] (partner 1 µM),relative viability,HARA; first compound 0.002 µM,1.02
same,relative viability,HARA; first compound 0.006325 µM,0.957
same,relative viability,HARA; first compound 0.02 µM,1.17
same,relative viability,HARA; first compound 0.06325 µM,1.06
same,relative viability,HARA; first compound 0.2 µM,0.0699
same,relative viability,201T; first compound 0.002 µM,0.995
same,relative viability,201T; first compound 0.006325 µM,0.981
same,relative viability,201T; first compound 0.02 µM,0.968
same,relative viability,201T; first compound 0.06325 µM,1.03
same,relative viability,201T; first compound 0.2 µM,1.03
same,relative viability,LXF-289; first compound 0.002 µM,0.825
same,relative viability,LXF-289; first compound 0.006325 µM,0.79
same,relative viability,LXF-289; first compound 0.02 µM,0.894
same,relative viability,LXF-289; first compound 0.06325 µM,0.459
same,relative viability,LXF-289; first compound 0.2 µM,0.123
same,relative viability,NCI-H2170; first compound 0.002 µM,1.19
same,relative viability,NCI-H2170; first compound 0.006325 µM,1.23
same,relative viability,NCI-H2170; first compound 0.02 µM,0.655
same,relative viability,NCI-H2170; first compound 0.06325 µM,1.08
same,relative viability,NCI-H2170; first compound 0.2 µM,0.355
same,relative viability,SK-MES-1; first compound 0.002 µM,0.984
same,relative viability,SK-MES-1; first compound 0.006325 µM,1.03
same,relative viability,SK-MES-1; first compound 0.02 µM,1.08
same,relative viability,SK-MES-1; first compound 0.06325 µM,0.758
same,relative viability,SK-MES-1; first compound 0.2 µM,0.147
same,relative viability,EMC-BAC-2; first compound 0.002 µM,0.844
same,relative viability,EMC-BAC-2; first compound 0.006325 µM,0.772
same,relative viability,EMC-BAC-2; first compound 0.02 µM,0.584
same,relative viability,EMC-BAC-2; first compound 0.06325 µM,0.729
same,relative viability,EMC-BAC-2; first compound 0.2 µM,0.759
same,relative viability,H3255; first compound 0.002 µM,0.896
same,relative viability,H3255; first compound 0.006325 µM,0.691
same,relative viability,H3255; first compound 0.02 µM,0.755
same,relative viability,H3255; first compound 0.06325 µM,0.621
same,relative viability,H3255; first compound 0.2 µM,0.216
same,relative viability,RERF-LC-KJ; first compound 0.002 µM,0.817
same,relative viability,RERF-LC-KJ; first compound 0.006325 µM,0.791
same,relative viability,RERF-LC-KJ; first compound 0.02 µM,0.877
same,relative viability,RERF-LC-KJ; first compound 0.06325 µM,0.948
same,relative viability,RERF-LC-KJ; first compound 0.2 µM,0.223
same,relative viability,NCI-H2126; first compound 0.002 µM,1.08
same,relative viability,NCI-H2126; first compound 0.006325 µM,0.97
same,relative viability,NCI-H2126; first compound 0.02 µM,0.84
same,relative viability,NCI-H2126; first compound 0.06325 µM,0.993
same,relative viability,NCI-H2126; first compound 0.2 µM,0.951
same,relative viability,LOU-NH91; first compound 0.002 µM,0.765
same,relative viability,LOU-NH91; first compound 0.006325 µM,0.726
same,relative viability,LOU-NH91; first compound 0.02 µM,0.55
same,relative viability,LOU-NH91; first compound 0.06325 µM,0.328
same,relative viability,LOU-NH91; first compound 0.2 µM,0.351
same,relative viability,LU99A; first compound 0.002 µM,0.606
same,relative viability,LU99A; first compound 0.006325 µM,0.628
same,relative viability,LU99A; first compound 0.02 µM,0.343
same,relative viability,LU99A; first compound 0.06325 µM,0.127
same,relative viability,LU99A; first compound 0.2 µM,0.112
same,relative viability,NCI-H2087; first compound 0.002 µM,0.934
same,relative viability,NCI-H2087; first compound 0.006325 µM,0.684
same,relative viability,NCI-H2087; first compound 0.02 µM,0.875
same,relative viability,NCI-H2087; first compound 0.06325 µM,0.156
same,relative viability,NCI-H2087; first compound 0.2 µM,0.145
same,relative viability,NCI-H1563; first compound 0.002 µM,0.937
same,relative viability,NCI-H1563; first compound 0.006325 µM,0.834
same,relative viability,NCI-H1563; first compound 0.02 µM,0.811
same,relative viability,NCI-H1563; first compound 0.06325 µM,0.473
same,relative viability,NCI-H1563; first compound 0.2 µM,0.536
same,relative viability,HOP-62; first compound 0.002 µM,0.931
same,relative viability,HOP-62; first compound 0.006325 µM,0.962
same,relative viability,HOP-62; first compound 0.02 µM,0.79
same,relative viability,HOP-62; first compound 0.06325 µM,0.993
same,relative viability,HOP-62; first compound 0.2 µM,0.875
same,relative viability,NCI-H1993; first compound 0.002 µM,0.929
same,relative viability,NCI-H1993; first compound 0.006325 µM,0.953
same,relative viability,NCI-H1993; first compound 0.02 µM,0.884
same,relative viability,NCI-H1993; first compound 0.06325 µM,0.743
same,relative viability,NCI-H1993; first compound 0.2 µM,0.47
same,relative viability,UMC-11; first compound 0.002 µM,0.606
same,relative viability,UMC-11; first compound 0.006325 µM,0.584
same,relative viability,UMC-11; first compound 0.02 µM,0.682
same,relative viability,UMC-11; first compound 0.06325 µM,0.156
same,relative viability,UMC-11; first compound 0.2 µM,0.107
same,relative viability,BEN; first compound 0.002 µM,0.792
same,relative viability,BEN; first compound 0.006325 µM,0.834
same,relative viability,BEN; first compound 0.02 µM,0.416
same,relative viability,BEN; first compound 0.06325 µM,0.341
same,relative viability,BEN; first compound 0.2 µM,0.203
same,relative viability,NCI-H650; first compound 0.002 µM,0.887
same,relative viability,NCI-H650; first compound 0.006325 µM,0.745
same,relative viability,NCI-H650; first compound 0.02 µM,0.487
same,relative viability,NCI-H650; first compound 0.06325 µM,0.0913
same,relative viability,NCI-H650; first compound 0.2 µM,0.102
same,relative viability,COR-L 105; first compound 0.002 µM,0.996
same,relative viability,COR-L 105; first compound 0.006325 µM,0.897
same,relative viability,COR-L 105; first compound 0.02 µM,0.976
same,relative viability,COR-L 105; first compound 0.06325 µM,0.165
same,relative viability,COR-L 105; first compound 0.2 µM,0.224
same,relative viability,LC-2-ad; first compound 0.002 µM,0.48
same,relative viability,LC-2-ad; first compound 0.006325 µM,0.482
same,relative viability,LC-2-ad; first compound 0.06325 µM,0.289
same,relative viability,LC-2-ad; first compound 0.2 µM,0.262
same,relative viability,HCC-78; first compound 0.002 µM,0.302
same,relative viability,HCC-78; first compound 0.06325 µM,0.337
same,relative viability,HCC-78; first compound 0.2 µM,0.232
